Like-named read-outs stand apart in the source and are kept apart here.
Key:
[1] = molecular target: recombinant human NF-kappaB-inducing kinase (NIK/MAP3K14) (Homo sapiens, UniProt Q99558); experiment: Inhibition of auto-phosphorylation of recombinant human NIK/MAP3K14 activity (AlphaScreen), Biological Assay A; assay type: biochemical; conditions: averaged values over all measurements on all batches
Summary of the method: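 AlphaScreen detection with anti-phospho-IKK Ser176/180 antibody plus Protein A acceptor/glutathione donor beads after 1 h, 25 °C reaction of 0.2 nM GST-tagged kinase, 25 μM ATP and compound. Buffer: 50 mM Tris pH 7.5, MgCl2, EGTA, DTT, vanadate; 1% DMSO. IC50 fitted sigmoidally to % inhibition.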

[2] = test system: P-IKKα levels in L363 (NIK translocated multiple myeloma) cells; experiment: Effect of compounds on P-IKKα levels in L363 cells (Mesoscale sandwich immuno-assay), Biological Assay B; assay type: cell-based, human; conditions: 2 hr treatment, averaged values, read-out: Inhibition of pIKKα_L-363 (IC50 (nM))
Experimental: Effect of Compounds on P-IKKα Levels in L363 (NIK Translocated Multiple Myeloma) Cells
All compounds tested were dissolved in DMSO and further dilutions were made in culture medium. Final DMSO concentration was 1% (v/v) in cell assays. The human L363 cells (ATCC) were cultured in RPMI 1640 medium supplemented with GlutaMax and 10% fetal calf serum (PAA). Cells were routinely maintained at densities of 0.2×10^6 cells per ml-1×10^6 cells per ml at 37° C. in a humidified 5% CO2 atmosphere. Cells were passaged twice a week splitting back to obtain the low density. Cells were seeded in 96 well plates (Nunc 167008) at 2×10^6 per ml media in a volume of 75 μl per well plus 25 μl 1 μg/ml recombinant human B-cell activating factor (BAFF/BLyS/TNFSF13B). Seeded cells were incubated at 37° C. in a humidified 5% CO2 atmosphere for 24 hr. Drugs and/or solvents were added (20 μl) to a final volume of 120 μl. Following 2 hr treatment plates were removed from the incubator and cell lysis was achieved by the addition of 30 μl 5× lysis buffer followed by shaking on a plate shaker at 4° C. for 10 min. At the end of this incubation lysed cells were centrifuged at 800×g for 20 min at 4° C. and the lysate was assessed for P-IKKα levels by sandwich immuno-assay carried out in anti-rabbit antibody coated Mesoscale plates. Within an experiment, the results for each treatment were the mean of 2 replicate wells. For initial screening purposes, compounds were tested using an 8 point dilution curve (serial 1:3 dilutions). For each experiment, controls (containing MG132 and BAFF but no test drug) and a blank incubation (containing MG132 and BAFF and 10 μM ADS125117, a test concentration known to give full inhibition) were run in parallel. The blank incubation value was subtracted from all control and sample values. To determine the IC50 a sigmoidal curve was fitted to the plot of % inhibition of control P-IKKα levels versus Log10 compound concentration.
Note: Compounds 237 and 238 were tested at a maximum top concentration of 823 nM.

[3] = test system: JJN-3 (NIK translocated) multiple myeloma cells; experiment: Antiproliferative activity on JJN-3 multiple myeloma cells (CellTiter-Glo, 96 hr), Biological Assay C; assay type: cell-based, human; conditions: JJN-3 (NIK translocated) cells, averaged values, read-out: JJN-3 Proliferation inhibition (IC50 (nM))
Summary of the method: (§1)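 Growth read-out was CellTiter-Glo luminescence after 96 h compound exposure, given as percent of no-drug control after subtracting a blank of cells read at dosing. Compounds ran as 9-point serial 1:3 dilutions in 0.3% DMSO, duplicate wells, on JJN-3 (15000/well) or KMS12-BM (20000/well) cells in RPMI 1640/10% FCS.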

[4] = test system: KMS12-BM (NIK WT) multiple myeloma cells; experiment: Antiproliferative activity on KMS12-BM multiple myeloma cells (CellTiter-Glo, 96 hr), Biological Assay C; assay type: cell-based, human; conditions: averaged values, read-out: KMS-12 Proliferation inhibition (IC50 (nM))
Summary of the method: as §1

Sequence of recombinant human NF-kappaB-inducing kinase (NIK/MAP3K14) (Q99558 whole entry): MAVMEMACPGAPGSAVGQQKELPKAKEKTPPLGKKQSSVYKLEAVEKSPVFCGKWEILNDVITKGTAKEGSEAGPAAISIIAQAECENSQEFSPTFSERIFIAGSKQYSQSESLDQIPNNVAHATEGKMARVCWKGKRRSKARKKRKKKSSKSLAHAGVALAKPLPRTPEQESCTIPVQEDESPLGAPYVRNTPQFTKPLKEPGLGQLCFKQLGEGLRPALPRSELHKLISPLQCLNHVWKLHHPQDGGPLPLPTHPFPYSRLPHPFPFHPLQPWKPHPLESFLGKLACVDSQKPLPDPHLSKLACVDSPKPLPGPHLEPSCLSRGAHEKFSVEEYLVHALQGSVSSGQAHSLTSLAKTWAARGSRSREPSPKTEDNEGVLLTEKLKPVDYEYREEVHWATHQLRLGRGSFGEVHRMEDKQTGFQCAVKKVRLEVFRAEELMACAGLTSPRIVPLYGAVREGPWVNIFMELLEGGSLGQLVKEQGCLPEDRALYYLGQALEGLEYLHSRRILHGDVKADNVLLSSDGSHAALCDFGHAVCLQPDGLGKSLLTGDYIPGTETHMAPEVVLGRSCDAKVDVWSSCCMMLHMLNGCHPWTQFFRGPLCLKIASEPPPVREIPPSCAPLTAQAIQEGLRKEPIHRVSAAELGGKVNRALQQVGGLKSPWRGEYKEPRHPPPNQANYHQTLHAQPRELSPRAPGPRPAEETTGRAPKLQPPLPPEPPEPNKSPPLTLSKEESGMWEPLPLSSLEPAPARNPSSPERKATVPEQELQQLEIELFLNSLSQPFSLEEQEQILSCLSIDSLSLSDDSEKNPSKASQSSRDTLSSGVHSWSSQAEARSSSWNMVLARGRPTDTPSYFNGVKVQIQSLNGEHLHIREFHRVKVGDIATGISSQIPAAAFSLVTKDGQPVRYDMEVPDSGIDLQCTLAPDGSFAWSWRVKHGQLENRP

Compound | IC50 [1] | IC50 ([2]; Homo sapiens, L-363, 2 h) | IC50 [2] | IC50 ([3]; Homo sapiens, JJN-3, 96 h) | IC50 ([4]; Homo sapiens, KMS-12-BM, 96 h) | melting point | IC50 [3] | IC50 [4]
C[C@]1(CO)CNc2c(C#N)cc(-c3ccnc(Nc4ccccc4C4CCCN4)n3)cc21 (single isomer, unassigned) [Compound 237] | 214 nM | > 832 nM |  |  |  |  |  | 
C[C@]1(CO)CNc2c(C#N)cc(-c3ccnc(Nc4ccccc4C4CCCN4)n3)cc21 (single isomer, unassigned) [Compound 238] | 955 nM |  | > 832 nM |  |  |  |  | 
C[C@]1(CO)CNc2c(C#N)cc(-c3ccnc(Nc4ccc(S(C)(=O)=O)cc4CCC4CC4)n3)cc21 [Compound 2] | 4.3 nM | 4.8 nM |  | 58 nM | > 10000 nM |  |  | 
CCCCCc1cc(S(C)(=O)=O)ccc1Nc1nccc(-c2cc(C#N)c3c(c2)[C@@](C)(CO)CN3)n1 [Compound 3] | 10.2 nM | 15.1 nM |  | 115 nM | > 10000 nM |  |  | 
CNC(=O)c1ccc(C)c(Nc2nccc(-c3cc(C#N)c4c(c3)[C@@](C)(CO)CN4)n2)c1 [Compound 4] | 4.2 nM | 20.9 nM |  | 759 nM | > 10000 nM |  |  | 
C[C@]1(CO)CNc2c(C#N)cc(-c3ccnc(Nc4cc(C#N)ccc4OC4CC4)n3)cc21 [Compound 10] | 7.4 nM | 11.5 nM |  | 67 nM | 1230 nM |  |  | 
Cc1cc(F)c(C#N)cc1Nc1nccc(-c2cc(C#N)c3c(c2)[C@@](C)(CO)CN3)n1 [Compound 11] | 1.8 nM | 6 nM |  | 617 nM | > 10000 nM |  |  | 
CC(C)(O)COc1ccc(C#N)cc1Nc1nccc(-c2cc(C#N)c3c(c2)[C@@](C)(CO)CN3)n1 [Compound 12] | 4.1 nM | 25.7 nM |  | 138 nM | 4900 nM |  |  | 
Cc1cc(P(C)(C)=O)c(Cl)cc1Nc1nccc(-c2cc(C#N)c3c(c2)[C@@](C)(CO)CN3)n1 [Compound 20] | 1.7 nM | 11.5 nM |  | 63 nM | ~1580 nM |  |  | 
COc1cc(C(=O)NC2CCOCC2)ccc1Nc1nccc(-c2cc(C#N)c3c(c2)C(C)(CO)CN3)n1 (centres unmarked) [Compound 21] | 2.5 nM | 4.5 nM |  | 51 nM | 891 nM |  |  | 
COc1cc(N2CCC(N(C)C)CC2)c(Cl)cc1Nc1nccc(-c2cc(C#N)c3c(c2)C(C)(CO)CN3)n1 (centres unmarked) [Compound 22] | 2.5 nM | 11.5 nM |  | 7 nM | 631 nM |  |  | 
COc1cc(CO)c(Cl)cc1Nc1nccc(-c2cc(C#N)c3c(c2)C(C)(CO)CN3)n1 (centres unmarked) [Compound 24] | 4.5 nM | 6 nM |  | 13 nM | 2820 nM |  |  | 
CN1CCC(Oc2ccc(Cl)cc2Nc2nccc(-c3cc(C#N)c4c(c3)C(C)(CO)CN4)n2)CC1 (centres unmarked) [Compound 25] | 3.6 nM | 33.9 nM |  | 12 nM | 589 nM |  |  | 
Cc1c(NC(=O)C2CCN(C)CC2)cc(Cl)cc1Nc1nccc(-c2cc(C#N)c3c(c2)[C@@](C)(CO)CN3)n1 [Compound 68] | 0.8 nM | 1.9 nM |  | 16 nM | 1480 nM |  |  | 
Cc1cc(C(=O)NC2CCOCC2)ccc1Nc1nccc(-c2cc(C#N)c3c(c2)C(C)(C)CN3)n1 [Compound 78] | 2.7 nM | 7.9 nM |  | 87 nM | 2040 nM |  |  | 
COc1cc(N2CCOCC2)c(Cl)cc1Nc1nccc(-c2cc(C#N)c3c(c2)C(C)(C)CN3)n1 [Compound 79] | 47.9 nM | 75.9 nM |  | 91 nM | ~5130 nM |  |  | 
COc1cc(OCC(=O)N(C)C)c(Cl)cc1Nc1nccc(-c2cc(C#N)c3c(c2)C(C)(C)CN3)n1 [Compound 82] | 7.6 nM | 5.3 nM |  | 22 nM | > 10000 nM |  |  | 
COc1cc(CO)c(Cl)cc1Nc1nccc(-c2cc(C#N)c3c(c2)C(C)(C)CN3)n1 [Compound 84] | 19.1 nM | 12.9 nM |  | 251 nM | ~7590 nM |  |  | 
COc1cc(S(C)(=O)=O)c(Cl)cc1Nc1nccc(-c2cc(C#N)c3c(c2)C(C)(C)CN3)n1 [Compound 85] | 11.3 nM | 41.7 nM |  | 57 nM | > 10000 nM |  |  | 
CCN1CCN(Cc2cc(OC)c(Nc3nccc(-c4cc(C#N)c5c(c4)C(C)(C)CN5)n3)cc2Cl)CC1 [Compound 87] | 7.1 nM | 93.3 nM |  | 35 nM | 1180 nM |  |  | 
COc1cc(C(=O)N2CCNC(C#N)C2)c(Cl)cc1Nc1nccc(-c2cc(C#N)c3c(c2)C(C)(C)CN3)n1 (centres unmarked) [Compound 121] | 8.5 nM |  |  | 12 nM | 120 nM | 193 °C |  | 
COc1cc(C(=O)N2CC3(CC(O)C3)C2)c(Cl)cc1Nc1nccc(-c2cc(C#N)c3c(c2)C(C)(C)CN3)n1 [Compound 123] | 8.5 nM |  |  | 14 nM | 1050 nM | 287 °C |  | 
Cc1ccc(C#N)cc1Nc1nccc(-c2cc(C#N)c3c(c2)[C@@](C)(CO)CN3)n1 [Compound 134] | 0.9 nM |  | 2.8 nM |  |  |  | 91 nM | 5500 nM
Cc1ccc(C#N)cc1Nc1nccc(-c2cc(C#N)c3c(c2)[C@@](C)(COC(=O)CN2CCN(C)CC2)CN3)n1 [Compound 145] | 17.4 nM | 436 nM |  |  |  |  |  | 
Cc1ccc(COC(C)C)cc1Nc1nccc(-c2cc(C#N)c3c(c2)[C@@](C)(CO)CN3)n1 [Compound 149] | 10 nM | 102 nM |  |  |  |  |  | 
Cc1cc(C(=O)NCC2COC2)c(F)cc1Nc1nccc(-c2cc(C#N)c3c(c2)[C@@](C)(CO)CN3)n1 [Compound 187] | 3.2 nM |  |  | 39 nM | 1100 nM | 240 °C |  | 
Cc1c(Nc2nccc(-c3cc(C#N)c4c(c3)[C@@](C)(CO)CN4)n2)cccc1C(=O)N1CCN(C2CC2)CC1 [Compound 206] | 5.3 nM |  |  | 71 nM | ~7240 nM | 238 °C |  | 
Cc1ccc(C2CN(C)C2)cc1Nc1nccc(-c2cc(C#N)c3c(c2)[C@@](C)(CO)CN3)n1 [Compound 210] | 33.1 nM | > 10000 nM |  |  |  |  |  | 
Cc1ccc(CN2CCOCC2)c(Nc2nccc(-c3cc(C#N)c4c(c3)[C@@](C)(CO)CN4)n2)c1 [Compound 222] | 31.6 nM | 302 nM |  |  |  |  |  | 

Source: US11180487B2, “Substituted cyanoindoline derivatives as NIK inhibitors” (Janssen Pharmaceutica NV, priority 2016, dated 2021)
